Data published in patent US20250064941A1, “SIGLEC LIGANDS, CONJUGATES, AND METHODS OF USE THEREOF” (Osprey Biopharmaceuticals, Inc., priority 2023, published 2025).
pKd: −log10 of the molar value.

Key:
[1] = target: T1, mouse Siglec-2-Fc-Avi (CD22) (Mus musculus, UniProt P35329); experiment: SPR binding affinity to mouse CD22; conditions: steady-state analysis
T1 construct: made in house
T1 sequence (P35329 22-708 limits assumed): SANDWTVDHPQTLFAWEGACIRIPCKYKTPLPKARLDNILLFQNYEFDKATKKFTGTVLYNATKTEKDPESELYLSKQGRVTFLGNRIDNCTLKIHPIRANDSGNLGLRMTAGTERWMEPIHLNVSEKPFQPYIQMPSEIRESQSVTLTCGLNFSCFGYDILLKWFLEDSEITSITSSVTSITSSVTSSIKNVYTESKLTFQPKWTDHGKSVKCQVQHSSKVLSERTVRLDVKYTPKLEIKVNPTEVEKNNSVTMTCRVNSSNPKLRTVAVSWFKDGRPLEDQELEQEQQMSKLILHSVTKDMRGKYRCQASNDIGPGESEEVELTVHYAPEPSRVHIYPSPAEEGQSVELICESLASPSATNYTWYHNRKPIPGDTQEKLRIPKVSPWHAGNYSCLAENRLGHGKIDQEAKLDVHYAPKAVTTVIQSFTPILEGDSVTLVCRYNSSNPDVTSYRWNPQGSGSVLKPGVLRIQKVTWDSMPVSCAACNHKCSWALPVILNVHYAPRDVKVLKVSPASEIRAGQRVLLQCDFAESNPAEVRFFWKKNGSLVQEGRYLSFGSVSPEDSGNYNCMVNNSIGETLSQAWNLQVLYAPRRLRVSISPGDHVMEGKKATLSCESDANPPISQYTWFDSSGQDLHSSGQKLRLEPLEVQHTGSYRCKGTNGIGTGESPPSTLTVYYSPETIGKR
Summary of the method: (§1)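 Steady-state fits gave the affinities. Before capture on a streptavidin surface, biotinylated CD22 had native sialic acids stripped (SialoExo, 4 hours, 37° C.). Running buffer: 10 mM HEPES pH 7.5, 150 mM NaCl, 0.05% Tween-20, 1% DMSO, with DMSO solvent correction.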

[2] = target: T2, human Siglec-2/CD22 protein (Homo sapiens, UniProt P20273); experiment: SPR binding affinity to human CD22; conditions: steady-state analysis
T2 construct: purchased Acro Biosystems SI2-H82E3
T2 sequence (P20273 20-847): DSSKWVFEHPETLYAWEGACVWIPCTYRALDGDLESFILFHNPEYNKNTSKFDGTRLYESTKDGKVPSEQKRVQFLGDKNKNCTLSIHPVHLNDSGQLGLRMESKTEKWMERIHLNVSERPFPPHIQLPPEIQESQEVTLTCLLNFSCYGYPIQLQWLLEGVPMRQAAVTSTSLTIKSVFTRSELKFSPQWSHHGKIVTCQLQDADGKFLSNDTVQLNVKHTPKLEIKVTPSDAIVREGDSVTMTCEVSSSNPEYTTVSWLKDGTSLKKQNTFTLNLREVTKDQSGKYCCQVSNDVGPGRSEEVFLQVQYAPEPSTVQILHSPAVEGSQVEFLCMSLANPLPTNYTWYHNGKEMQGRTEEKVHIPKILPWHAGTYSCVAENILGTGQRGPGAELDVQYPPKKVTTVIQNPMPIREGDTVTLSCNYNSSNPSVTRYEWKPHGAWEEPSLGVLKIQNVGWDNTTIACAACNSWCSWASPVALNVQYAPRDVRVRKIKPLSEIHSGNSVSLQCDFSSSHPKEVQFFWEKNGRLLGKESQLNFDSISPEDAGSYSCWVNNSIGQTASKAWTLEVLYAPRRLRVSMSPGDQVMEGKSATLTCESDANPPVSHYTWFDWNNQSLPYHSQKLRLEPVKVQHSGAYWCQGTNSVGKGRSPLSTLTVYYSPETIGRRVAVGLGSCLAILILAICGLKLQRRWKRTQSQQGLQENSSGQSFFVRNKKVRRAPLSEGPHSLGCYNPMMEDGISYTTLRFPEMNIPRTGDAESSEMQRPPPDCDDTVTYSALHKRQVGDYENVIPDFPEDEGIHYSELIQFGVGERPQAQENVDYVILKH
Summary of the method: as §1

cynomolgus Siglec-2/CD22 = cynomolgus Siglec-2/CD22 (Macaca fascicularis, UniProt A0A2K5WCZ6); experiment: biochemical; type: binding; conditions: SPR, steady-state analysis; read-out: Affinity cyno CD22
cynomolgus Siglec-2/CD22, sequence (A0A2K5WCZ6 entry or part of it): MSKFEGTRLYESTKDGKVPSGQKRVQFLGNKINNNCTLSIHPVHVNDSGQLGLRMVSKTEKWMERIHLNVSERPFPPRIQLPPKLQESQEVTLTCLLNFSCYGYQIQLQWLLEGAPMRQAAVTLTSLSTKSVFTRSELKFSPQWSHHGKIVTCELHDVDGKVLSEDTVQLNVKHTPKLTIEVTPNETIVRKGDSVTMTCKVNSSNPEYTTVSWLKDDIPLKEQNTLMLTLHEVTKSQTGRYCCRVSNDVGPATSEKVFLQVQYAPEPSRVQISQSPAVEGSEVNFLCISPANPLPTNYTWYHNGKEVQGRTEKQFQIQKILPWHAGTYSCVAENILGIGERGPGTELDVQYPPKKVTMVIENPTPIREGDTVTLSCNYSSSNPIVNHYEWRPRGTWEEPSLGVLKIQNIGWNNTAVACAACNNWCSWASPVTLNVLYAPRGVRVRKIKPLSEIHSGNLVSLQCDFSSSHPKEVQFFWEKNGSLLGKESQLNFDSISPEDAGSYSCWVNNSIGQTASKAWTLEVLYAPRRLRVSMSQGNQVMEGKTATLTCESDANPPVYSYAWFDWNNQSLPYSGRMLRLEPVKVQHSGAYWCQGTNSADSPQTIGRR
Summary of the method: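 Compound binding measured by steady-state SPR analysis, 120 s dissociation, in HEPES-NaCl-Tween buffer pH 7.5 containing 1% DMSO, DMSO solvent-corrected. Surface: cyno CD22, sialic acids first stripped by SialoExo for 4 h at 37° C., then amine-coupled onto CM5.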

SMILES	pKd [1]	pKd [2]	pKd (cynomolgus Siglec-2/CD22)
C#CCOCCOCCO[C@]1(C(=O)O)C[C@H](O)[C@@H](NC(=O)CO)[C@H]([C@H](O)[C@H](O)CNC(=O)Cc2ccc(C)cc2)O1 [Compound 175, (2R,4S,5R,6R)-6-((1R,2R)-1,2-dihydroxy-3-(2-(p-tolyl)acetamido)propyl)-4-hydroxy-5-(2-hydroxyacetamido)-2-(2-(2-(prop-2-yn-1-yloxy)ethoxy)ethoxy)tetrahydro-2H-pyran-2-carboxylic acid]	5.00 to 6.00	5.00 to 6.00	5.00 to 6.00
C#CCOCCOCCO[C@]1(C(=O)O)C[C@H](O)[C@@H](NC(=O)CO)[C@H]([C@H](O)[C@H](O)CNC(=O)Cc2cc(O)cc(Cl)c2)O1 [Compound 129, (2R,4S,5R,6R)-6-((1R,2R)-3-(2-(3-chloro-5-hydroxyphenyl)acetamido)-1,2-dihydroxypropyl)-4-hydroxy-5-(2-hydroxyacetamido)-2-(2-(2-(prop-2-yn-1-yloxy)ethoxy)ethoxy)tetrahydro-2H-pyran-2-carboxylic acid]	5.00 to 6.00	> 6.00	> 6.00
C#CCOCCCCCCO[C@]1(C(=O)O)C[C@H](O)[C@@H](NC(=O)NC2CC2)[C@H]([C@H](O)[C@H](O)CNC(=O)Cc2ccc(Cl)cc2)O1 [Compound 89, (2R,4S,5R,6R)-6-((1R,2R)-3-(2-(4-chlorophenyl)acetamido)-1,2-dihydroxypropyl)-5-(3-cyclopropylureido)-4-hydroxy-2-((6-(prop-2-yn-1-yloxy)hexyl)oxy)tetrahydro-2H-pyran-2-carboxylic acid]	5.00 to 6.00	5.00 to 6.00	5.00 to 6.00
C#CCOCCCCCCO[C@]1(C(=O)O)C[C@H](O)[C@@H](NC(=O)CO)[C@H]([C@H](O)[C@H](O)CNC(=O)Cc2ccc3cc[nH]c3c2)O1 [Compound 5, (2R,4S,5R,6R)-6-((1R,2R)-3-(2-(1H-indol-6-yl)acetamido)-1,2-dihydroxypropyl)-4-hydroxy-5-(2-hydroxyacetamido)-2-((6-(prop-2-yn-1-yloxy)hexyl)oxy)tetrahydro-2H-pyran-2-carboxylic acid]	5.00 to 6.00	> 6.00	> 6.00
C#CCOc1cccc(-c2cn([C@]3(C(=O)O)C[C@H](O)[C@@H](NC(=O)CO)[C@H]([C@H](O)[C@H](O)CNC(=O)Cc4ccc(-c5ccc(O)cc5)cc4)O3)nn2)c1 [Compound 60, (2R,4S,5R,6R)-6-((1R,2R)-1,2-dihydroxy-3-(2-(4′-hydroxy-[1,1′-biphenyl]-4-yl)acetamido)propyl)-4-hydroxy-5-(2-hydroxyacetamido)-2-(4-(3-(prop-2-yn-1-yloxy)phenyl)-1H-1,2,3-triazol-1-yl)tetrahydro-2H-pyran-2-carboxylic acid]	5.00 to 6.00	5.00 to 6.00	5.00 to 6.00
C#CCCOc1ccc(CS[C@]2(C(=O)O)C[C@H](O)[C@@H](NC(=O)CO)[C@H]([C@H](O)[C@H](O)CNC(=O)Cc3ccc(-c4ccc(O)cc4)cc3)O2)cc1 [Compound 64, (2S,4S,5R,6R)-2-((4-(but-3-yn-1-yloxy)benzyl)thio)-6-((1R,2R)-1,2-dihydroxy-3-(2-(4′-hydroxy-[1,1′-biphenyl]-4-yl)acetamido)propyl)-4-hydroxy-5-(2-hydroxyacetamido)tetrahydro-2H-pyran-2-carboxylic acid]	> 6.00	> 6.00	> 6.00
C#CCCOc1ccc(CO[C@]2(C(=O)O)C[C@H](O)[C@@H](NC(=O)CO)[C@H]([C@H](O)[C@H](O)CN)O2)cc1 [Compound 16, (2R,4S,5R,6R)-6-((1R,2R)-3-amino-1,2-dihydroxypropyl)-2-((4-(but-3-yn-1-yloxy)benzyl)oxy)-4-hydroxy-5-(2-hydroxyacetamido)tetrahydro-2H-pyran-2-carboxylic acid]	< 5.00	< 5.00	< 5.00

More lines, now with the values ahead:

pKd [1]	pKd [2]	pKd (cynomolgus Siglec-2/CD22)	SMILES
5.00 to 6.00	> 6.00	> 6.00	C#CCOCCOCCNc1c(NCCCCCCO[C@]2(C(=O)O)C[C@H](O)[C@@H](NC(=O)CO)[C@H]([C@H](O)[C@H](O)CNC(=O)C(F)(F)c3ccccc3)O2)c(=O)c1=O [Compound 275, (2R,4S,5R,6R)-6-((1R,2R)-3-(2,2-difluoro-2-phenylacetamido)-1,2-dihydroxypropyl)-2-((6-((3,4-dioxo-2-((2-(2-(prop-2-yn-1-yloxy)ethoxy)ethyl)amino)cyclobut-1-en-1-yl)amino)hexyl)oxy)-4-hydroxy-5-(2-hydroxyacetamido) tetrahydro-2H-pyran-2-carboxylic acid]
5.00 to 6.00	> 6.00	> 6.00	CC(=O)NCCOCCOCCOCCOCCNC(=O)CCCCCCO[C@]1(C(=O)O)C[C@H](O)[C@@H](NC(=O)CO)[C@H]([C@H](O)[C@H](O)CNC(=O)Cc2ccc(Cl)cc2)O1 [Compound 264, (2R,4S,5R,6R)-6-((1R,2R)-3-(2-(4-chlorophenyl)acetamido)-1,2-dihydroxypropyl)-2-((2,19-dioxo-6,9,12,15-tetraoxa-3,18-diazapentacosan-25-yl)oxy)-4-hydroxy-5-(2-hydroxyacetamido) tetrahydro-2H-pyran-2-carboxylic acid]
> 6.00	> 6.00	> 6.00	C#CCCOc1ccc(CO[C@]2(C(=O)O)C[C@H](O)[C@@H](NC(N)=O)[C@H]([C@H](O)[C@H](O)CNC(=O)Cc3ccc(Cl)cc3)O2)cc1 [Compound 205, (2R,4S,5R,6R)-2-((4-(but-3-yn-1-yloxy)benzyl)oxy)-6-((1R,2R)-3-(2-(4-chlorophenyl)acetamido)-1,2-dihydroxypropyl)-4-hydroxy-5-ureidotetrahydro-2H-pyran-2-carboxylic acid]
5.00 to 6.00	> 6.00	> 6.00	C#CCOCCCCCCO[C@]1(C(=O)O)C[C@H](O)[C@@H](NC(=O)C(=O)Nc2ccccc2)[C@H]([C@H](O)[C@H](O)CNC(=O)Cc2ccc(Cl)cc2)O1 [Compound 188, (2R,4S,5R,6R)-6-((1R,2R)-3-(2-(4-chlorophenyl)acetamido)-1,2-dihydroxypropyl)-4-hydroxy-5-(2-oxo-2-(phenylamino)acetamido)-2-((6-(prop-2-yn-1-yloxy)hexyl)oxy)tetrahydro-2H-pyran-2-carboxylic acid]
< 5.00	< 5.00	< 5.00	C#CCOCCOCCO[C@]1(C(=O)O)C[C@H](O)[C@@H](NS(=O)(=O)NC)[C@H]([C@H](O)[C@H](O)CNC(=O)Cc2ccc(-c3ccc(O)cc3)cc2)O1 [Compound 225, (2R,4S,5R,6R)-6-((1R,2R)-1,2-dihydroxy-3-(2-(4′-hydroxy-[1,1′-biphenyl]-4-yl)acetamido)propyl)-4-hydroxy-5-((N-methylsulfamoyl)amino)-2-(2-(2-(prop-2-yn-1-yloxy)ethoxy)ethoxy)tetrahydro-2H-pyran-2-carboxylic acid]
> 6.00	> 6.00	> 6.00	C#CCNc1c(NCCCCCCO[C@]2(C(=O)O)C[C@H](O)[C@@H](NC(N)=O)[C@H]([C@H](O)[C@H](O)CNC(=O)Cc3ccc(-c4ccccc4)cc3)O2)c(=O)c1=O [Compound 224, (2R,4S,5R,6R)-6-((1R,2R)-3-(2-([1,1′-biphenyl]-4-yl)acetamido)-1,2-dihydroxypropyl)-2-((6-((3,4-dioxo-2-(prop-2-yn-1-ylamino)cyclobut-1-en-1-yl)amino)hexyl)oxy)-4-hydroxy-5-ureidotetrahydro-2H-pyran-2-carboxylic acid]
